pIC50: −log10 of the molar value.
Target: T1, purified human placenta 20S proteasome (Homo sapiens, UniProt P28074)
T1 construct: purified human placenta 20S proteasome; tissue Diabetes Forschungsinstitut, Düsseldorf, Germany; host or cells: human placenta
Assay: Inhibition of the chymotrypsin-like activity of the 20S proteasome (Suc-LLVY-AMC hydrolysis, fluorescence)
Format: biochemical
Details: substrate Suc-LLVY-AMC 80 μM, 60 min preincubation at room temperature, incubation 3-24 h at 37° C.
Experimental: It is based on the hydrolysis of the fluorogenic peptide Suc-LLVY-AMC (Succinyl-leucine-leucine-valine-tyrosine-7-amino-4-methylcoumarin), which is cleaved exclusively at the Y-AMC bond by the 20S proteasome. Hydrolysis of this peptide is accompanied by an increase in fluorescence intensity (λex355 nm, λem460 nm) due to release of the […] that accompanies diffusion apart of the hydrolysis product Suc-LLVY.
2 μl of a 1 mM solution of a test compound in DMSO (dimethylsulfoxide, 20 μM final concentration in the well) are preincubated for 60 min at room temperature in black 96-well microtiter plates together with a mixture of 1 μl purified human placenta 20S proteasome (Diabetes Forschungsinstitut, Düsseldorf, Germany; about 100 ng proteasome, depending on the proteasome preparation) and 47 μl buffer-Ca (5 mM CaCl2, 20 mM Trs/HCl (Tris(hydroxymethyl)-amino-methane hydrochloride) pH 8.0). 3 pd of a 2.67 mM solution of Suc-LLVY-AMC (Bachem, Switzerland) in DMSO (80 μM final concentration in the well) and 47 μl buffer-Ca are mixed and added. The resulting mixture is incubated for 3-24 h at 37° C. If desired, proteolysis of the substrate can be stopped by addition of 50 μl stop solution (100 mM monochloroacetic acid, 130 mM NaOH, 100 mM acetic acid, pH=4.3). The fluorescence is monitored with a FLUOROSKAN ASCENT™ microtiter plate reader.
To each measure series two control experiments have to be carried out • 1.) 0% value: 2 μl DMSO are used in the above described assay instead of 2 μl of a 1 mM solution of a test compound in DMSO and 48 μl buffer-Ca instead of a mixture of 47 μl buffer-Ca and 1 μl purified proteasome. • 2.) 100% value: in the above described assay 2 μl DMSO are used instead of 2 μl of a 1 mM solution of the test compound in DMSO. Calculation [formula]
The IC50 value is defined as that concentration of a compound at which the remaining activity is 50%.

Compared with `COc1ccc(CN[C@@H](C(=O)N[C@H](C(=O)NCc2ccc(OC)cc2O)C(C)C)[C@@H](O)[C@H](Cc2ccccc2)NC(=O)[C@@H](NC(=O)OCC2CCCCC2)C(C)(C)C)cc1` [Example 15, {(S)-1-[(1S,2S,3R)-1-Benzyl-2-hydroxy-3-[(S)-1-(2-hydroxy-4-methoxy-benzylcarbamoyl)-2-methyl-propylcarbamoyl]-3-(4-methoxy-benzylamino)-propylcarbamoyl]-2,2-dimethyl-propyl}-carbamic acid cyclohexylmethyl ester], `COc1ccc(CNC(C(=O)NC(C(=O)NCc2ccc(OC)cc2O)C(C)C)C(O)C(Cc2ccccc2)NC(=O)C(NC(=O)OC(C)(C)C)C(C)(C)C)cc1` (centres unmarked) [Example 3, {1-[1-Benzyl-2-hydroxy-3-[1-(2-hydroxy-4-methoxy-benzylcarbamoyl)-2-methyl-propylcarbamoyl]-3-(4-methoxy-benzylamino)-propylcarbamoyl]-2,2-dimethyl-propyl}-carbamic acid tert-butyl ester] is 1.41 log units lower in pIC50: 6.00 for the first, 4.59 for the second.

Compared with `COc1ccc(CNC(C(=O)NC(C(=O)NCc2ccc(OC)cc2O)C(C)C)C(O)C(Cc2ccccc2)NC(=O)C(NC(=O)OCc2ccncc2)C(C)(C)C)cc1` (centres unmarked) [Example 6, {1-[1-Benzyl-2-hydroxy-3-[1-(2-hydroxy-4-methoxy-benzylcarbamoyl)-2-methyl-propylcarbamoyl]-3-(4-methoxy-benzylamino)-propylcarbamoyl]-2,2-dimethyl-propyl}-carbamic acid pyridin-4-ylmethyl ester], `COc1ccc(CN[C@@H](C(=O)N[C@H](C(=O)NCc2ccc(OC)cc2O)C(C)C)[C@@H](O)[C@H](Cc2ccccc2)NC(=O)[C@@H](NC(=O)OCc2ccccc2)C(C)(C)C)cc1` [Example 1] is 0.39 log units higher in pIC50: 5.66 for the first, 6.05 for the second.

Going from `COc1ccc(CNC(C(=O)NC(C(=O)NCc2ccc(OC)cc2O)C(C)C)C(O)C(Cc2ccccc2)NC(=O)C(NC(=O)OCc2ccc3ccccc3c2)C(C)(C)C)cc1` (centres unmarked) [Example 5, {1-[1-Benzyl-2-hydroxy-3-[1-(2-hydroxy-4-methoxy-benzylcarbamoyl)-2-methyl-propylcarbamoyl]-3-(4-methoxy-benzylamino)-propylcarbamoyl]-2,2-dimethyl-propyl}-carbamic acid naphthalen-2-ylmethyl ester] to `COc1ccc(CNC(C(=O)NC(C(=O)NCc2ccc(OC)cc2O)C(C)C)C(O)C(Cc2ccccc2)NC(=O)C(NC(=O)OCc2cccc3ccccc23)C(C)(C)C)cc1` (centres unmarked) [Example 4, {1-[1-Benzyl-2-hydroxy-3-[1-(2-hydroxy-4-methoxy-benzyl-carbamoyl)-2-methyl-propylcarbamoyl]-3-(4-methoxy-benzylamino)-propylcarbamoyl]-2,2-dimethyl-propyl}-carbamic acid naphthalen-1-ylmethyl ester], the pIC50 rises from 5.28 to 5.70 (0.42 log units). The second is the more potent here.

`COc1ccc(CNC(C(=O)NC(C(=O)NCc2ccc(OC)cc2O)C(C)C)C(O)C(Cc2ccccc2)NC(=O)C(NC(=O)OCc2cccc(C)c2)C(C)(C)C)cc1` (centres unmarked) [Example 11, {1-[1-Benzyl-2-hydroxy-3-[1-(2-hydroxy-4-methoxy-benzylcarbamoyl)-2-methyl-propylcarbamoyl]-3-(4-methoxy-benzylamino)-propylcarbamoyl]-2,2-dimethyl-propyl}-carbamic acid 3-methylbenzyl ester] and `COc1ccc(CNC(C(=O)NC(C(=O)NCc2ccc(OC)cc2O)C(C)C)C(O)C(Cc2ccccc2)NC(=O)C(NC(=O)OCc2cccc(N)c2)C(C)(C)C)cc1` (centres unmarked) [Example 13, {1-[1-Benzyl-2-hydroxy-3-[1-(2-hydroxy-4-methoxy-benzylcarbamoyl)-2-meth-propylcarbamoyl]-3-(4-methoxy-benzylamino)-propylcarbamoyl]-2,2-dimethyl-propyl}-carbamic acid 3-amino-benzyl ester] are within 0.2 log units of each other in pIC50: 6.30 for the first, 6.22 for the second.

Compared with `COc1ccc(CNC(C(=O)NC(C(=O)NCc2ccc(OC)cc2O)C(C)C)C(O)C(Cc2ccccc2)NC(=O)C(NC(=O)OCc2ccccc2)C(C)C)cc1` (centres unmarked) [Example 8, {1-[1-Benzyl-2-hydroxy-3-[1-(2-hydroxy-4-methoxy-benzylcarbamoyl)-2-methyl-propylcarbamoyl]-3-(4-methoxy-benzylamino)-propylcarbamoyl]-2-methyl-propyl}-carbamic acid benzyl ester], `COc1ccc(CNC(C(=O)NC(C(=O)NCc2ccc(OC)cc2O)C(C)C)C(O)C(Cc2ccccc2)NC(=O)CNC(=O)OCc2ccccc2)cc1` (centres unmarked) [Example 7, {[1-Benzyl-2-hydroxy-3-[1-(2-hydroxy-4-methoxy-benzylcarbamoyl)-2-methyl-propylcarbamoyl]-3-(4-methoxy-benzylamino)-propylcarbamoyl]-methyl}-carbamic acid benzyl ester] is 0.43 log units lower in pIC50: 5.48 for the first, 5.05 for the second.

First: COc1ccc(CNC(C(=O)NC(C(=O)NCc2ccc(OC)cc2O)C(C)C)C(O)C(Cc2ccccc2)NC(=O)C(NC(=O)CCc2cccc(N)c2)C(C)(C)C)cc1 (centres unmarked) [Example 12, 4-{2-[3-(3-Amino-phenyl)-propionylamino]-3,3-dimethyl-butyrylamino}-3-hydroxy-2-(4-methoxy-benzylamino)-5-phenyl-pentanoic acid [1-(2-hydroxy-4-methoxy-benzylcarbamoyl)-2-methyl-propyl]-amide]
Second: COc1ccc(CNC(C(=O)NC(C(=O)NCc2ccc(OC)cc2O)C(C)C)C(O)C(Cc2ccccc2)NC(=O)C(NC(=O)Cc2cccc3ccccc23)C(C)(C)C)cc1 (centres unmarked) [Example 10, 4-[3,3-Dimethyl-2-(2-naphthalen-1-yl-acetylamino)-butyrylamino]-3-hydroxy-2-(4-methoxy-benzylamino)-5-phenyl-pentanoic acid [1-(2-hydroxy-4-methoxy-benzyl-carbamoyl)-2-methyl-propyl]-amide]
The pIC50 of the first is 0.78 log units lower: 6.22 for the first, 7.00 for the second. The second is the more potent here.

Compared with `COc1ccc(CNC(C(=O)NC(C(=O)NCc2ccc(OC)cc2O)C(C)C)C(O)C(Cc2ccccc2)NC(=O)C(NC(=O)OCc2cc(C)cc(C)c2)C(C)(C)C)cc1` (centres unmarked) [Example 14, {1-[1-Benzyl-2-hydroxy-3-[1-(2-hydroxy-4-methoxy-benzyl-carbamoyl)-2-methyl-propylcarbamoyl]-3-(4-methoxy-benzylamino)-propylcarbamoyl]-2,2-dimethyl-propyl}-carbamic acid 3,5-dimethyl-benzyl ester], `COC(=O)CCC(NC(=O)C(NCc1ccc(OC)cc1)C(O)C(Cc1ccccc1)NC(=O)C(NC(=O)OCc1ccccc1)C(C)C)C(=O)NCc1ccc(OC)cc1O` (centres unmarked) [Example 2, 4-[4-(2-Benzyloxycarbonylamino-3-methyl-butyrylamino)-3-hydroxy-2-(4-methoxy-benzylamino)-5-phenyl-pentanoylamino]-4-(2-hydroxy-4-methoxy-benzyl-carbomoyl)-butyric acid methyl ester] is 0.44 log units higher in pIC50: 5.96 for the first, 6.40 for the second. The second is the more potent here.

From US20050026994A1, “Use of 2, 4diamino-3-hydroxycarboxylic acid derivatives as proteasome inhibitors” (priority 2000, published 2005)
